Test results from patent US20070056049A1, “p53 and VEGF regulate tumor growth of NOS2 expressing cancer cells” (The Govt. of the USA as represented by the Secretary of the …, priority 1998, published 2007).
“Also recorded” adds a separate entry of the source.

Assays:
[1] = test system: VEGF secretion of NOS2-expressing Calu-6 cells; experiment: VEGF secretion into culture medium of NOS2-expressing Calu-6 cell clones (immunoprecipitation, western blot); type: cell-based, human; details: 2 mM L-NMA, 48 hr, 3×10^6 cells in 4 ml of medium
Description: FIG. 7a-b: VEGF protein concentrations are higher (4.3 and 7.1-fold) in the culture medium of NOS2-expressing Calu-6 cells clones than in the culture medium of vector controls (A) and correlate with increased VEGF mRNA expression (B). […] 3×10^6 cells were cultured in 4 ml of medium for 48 hr±2 mM L-NMA. VEGF was immunoprecipitated out of 1 ml of culture medium. The 4.4 kb VEGF mRNA was detected by northern blotting was a 522 bp ^32P-labeled cDNA (exon 1-7), and the 7.5 kb polycistronic mRNA encoding NOS2 with the full-length human NOS2 cDNA (Geller et al., Proc. Natl. Acad. Sci. U.S.A. 90:3491-3495 (1993); Tzeng et al., Proc. Nat'l Acad. Sci USA 92:11771-11775 (1995)).
NOS2 and VEGF western blot analysis: Cell lysates for western blotting were prepared by solubilization of cell pellets in RIPA butter. VEGF protein concentrations were determined as follows. Five μg of rabbit polyclonal anti-VEGF antibody (Santa Cruz Biotechnology) were added to either 1 mg of cellular protein extract or 1 ml of cell culture medium, incubated for 1 hr at 8-10° C., and then mixed with protein A-sepharose (10 mg) for 1 hr. […] After transfer to an Immunobilon-P membrane (Millipore), NOS2 and VEGF protein were detected with either a polyclonal anti-NOS2 antibody (Merck), 1:40,000 diluted, or a polyclonal anti-VEGF, 1:1000 diluted, as described (Ambs et al., Cancer Res. 58:334-341 (1998)).

[2] = test system: NOS2-expressing Calu-6 cells; experiment: Tumor xenoplantation of NOS2-expressing Calu-6 cells in athymic nude mice; type: in vivo; details: 1% AG; p53 null Calu-6 cells, subcutaneous tumors; p<0.05, two-tailed Student's t-test
Text: (§1) FIG. 2a-d: Tumor probability of NOS2-expressing human carcinoma cells lines is dependent on the p53 status. 3×10^6 cells of NOS2-expressing Calu-6 and LoVo carcinoma cells, and the vector controls (BaglacZ), were inoculated into 10 athymic nude mice, respectively. NOS2-expressing LoVo cells, which have two wild-type p53 alleles, grow slower (A) and produce smaller tumors (C) than vector controls (BaglacZ). In contrast, NOS2-expressing Calu-6 cells, which lack expression of functional p53, grow faster (B) and produce larger tumors (D) than the vector controls.
(§2) A. Methods Tumor xenoplantation: Suspensions of 3×10^5 to 5×10^6 cells in a volume of 0.2 ml were injected at a single subcutaneous site into athymic nude mice previously irradiated with 350 rads. Either 10 or 20 animals were injected per experiment. A nodule was scored as a tumor when it measured 125 mm^3 or more by its largest two dimensions.
(§3) Statistical Analysis: The Kaplan-Meier survival analysis was used to calculate the statistical significance of tumor probabilities in different treatment groups. Other comparisons were carried out by the two-tailed Student's t-test. Relationships are considered statistically significant when p<0.05.

[3] = test system: NOS2-expressing HT-29 colon carcinoma cells; experiment: Tumor xenoplantation of NOS2-expressing HT-29 colon carcinoma cells in athymic nude mice; type: in vivo; details: 1% AG in the drinking water; mutant p53 HT-29 cells; Kaplan-Meier analysis p=0.002
Description: 3×10^5 cells of NOS2 (Retro-HNOS) and β-galactosidase (BaglacZ) expressing HT-29 cells were inoculated into 40 athymic nude mice, respectively. Half of the animals in both groups received 1% AG in the drinking water. […] This effect is abolished (p=0.002) through treatment with 1% AG.
as §2, §3

[4] = test system: NOS2-expressing LoVo cells; experiment: Tumor xenoplantation of NOS2-expressing LoVo cells in athymic nude mice; type: in vivo; details: wild-type p53 LoVo cells, slow-growing tumors
Text: as §1, §2, §3

Structure (SMILES)	VEGF secretion into the culture medium [1]	tumor growth of NOS2-expressing Calu-6 cells [2]	tumor probability / tumor growth of NOS2-expressing HT-29 cells [3]	tumor growth of NOS2-expressing LoVo cells [4]
CNC(=N)NCCC[C@H](N)C(=O)O [L-NMA, NG-monomethyl-L-arginine]	reduced the VEGF secretion; also recorded: decreases VEGF secretion			
N=C(N)NN [aminoguanidine]		significantly reduced the tumor growth; also recorded: inhibited; also recorded: suppressed the tumor growth	significantly reduced the tumor growth; also recorded: reverses the growth stimulatory effect of NOS2	lack of an aminoguanidine effect
